US20100035871A1, “BENZOXAZINE DERIVATIVES AND USES THEREOF” (priority 2006, published 2010)
pKi: −log10 of the molar value. Structures can show the parent of a compound that is named as a salt.

target: T1, human 5-HT2C receptor (Homo sapiens, UniProt P28335); assay: 5-HT2C receptor binding, [125I]DOI displacement, membranes of transfected CHO cells; conditions: read-out: 5-HT2C Binding Ki avg
T1 construct: expressed in transfected cells; host or cells: CHO (Chinese Hamster Ovary) cells; membrane preparation
T1 sequence (P28335 33-458): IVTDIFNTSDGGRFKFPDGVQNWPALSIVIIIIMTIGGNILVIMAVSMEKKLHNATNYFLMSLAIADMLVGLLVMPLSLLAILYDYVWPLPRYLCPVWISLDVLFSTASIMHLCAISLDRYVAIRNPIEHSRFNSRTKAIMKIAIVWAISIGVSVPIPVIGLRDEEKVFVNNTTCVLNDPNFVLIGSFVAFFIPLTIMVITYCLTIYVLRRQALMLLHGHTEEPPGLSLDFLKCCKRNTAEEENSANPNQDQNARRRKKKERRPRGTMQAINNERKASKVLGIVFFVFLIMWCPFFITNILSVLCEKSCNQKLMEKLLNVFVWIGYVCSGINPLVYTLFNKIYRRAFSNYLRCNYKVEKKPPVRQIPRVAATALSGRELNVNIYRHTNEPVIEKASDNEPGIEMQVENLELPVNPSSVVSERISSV

SMILES | pKi
CN1CC(CN)Oc2c(-c3ccccc3)cccc21 (racemic) [Example 9, 1-(4-Methyl-8-phenyl-3,4-dihydro-2H-1,4-benzoxazin-2-yl)methanamine] | 6.79
CCN1CC(CN)Oc2c(-c3ccccc3Cl)cccc21 (racemic) [Example 19, 1-[8-(2-Chlorophenyl)-4-ethyl-3,4-dihydro-2H-1,4-benzoxazin-2-yl]methanamine] | 7.09
CCCN1CC(CN)Oc2c(-c3ccccc3Cl)cccc21 (racemic) [Example 21, 1-[8-(2-Chlorophenyl)-4-propyl-3,4-dihydro-2H-1,4-benzoxazin-2-yl]methanamine] | 7.19
NCC1COc2cc(Cl)cc(-c3ccccc3C(F)(F)F)c2N1 (racemic) [Example 25, 1-{7-Chloro-5-[2-(trifluoromethyl)phenyl]-3,4-dihydro-2H-1,4-benzoxazin-3-yl}methanamine] | 7.17
NCC1COc2cc(Cl)cc(-c3ccccc3)c2N1 (racemic) [Example 29, 1-(7-chloro-5-phenyl-3,4-dihydro-2H-1,4-benzoxazin-3-yl)methanamine] | 6.38
NCC1COc2cc(Cl)cc(-c3ccc(C(F)(F)F)cc3C(F)(F)F)c2N1 (racemic) [Example 38, 1-{5-[2,4-bis(trifluoromethyl)phenyl]-7-chloro-3,4-dihydro-2H-1,4-benzoxazin-3-yl}methanamine] | 6.54
NCC1COc2cc(F)cc(-c3ccccc3Cl)c2N1 (racemic) [Example 57, 1-[5-(2-chlorophenyl)-7-fluoro-3,4-dihydro-2H-1,4-benzoxazin-3-yl]methanamine] | 6.81
Cc1ccccc1-c1cc(F)cc2c1NC(CN)CO2 (racemic) [Example 58, 1-[7-fluoro-5-(2-methylphenyl)-3,4-dihydro-2H-1,4-benzoxazin-3-yl]methanamine] | 6.81
Cc1ccc(-c2cc(F)cc3c2NC(CN)CO3)c(C(F)(F)F)c1 (racemic) [Example 60, 1-{7-fluoro-5-[4-methyl-2-(trifluoromethyl)phenyl]-3,4-dihydro-2H-1,4-benzoxazin-3-yl}methanamine] | 7.19
COc1ccc(-c2cc(F)cc3c2NC(CN)CO3)cc1 (racemic) [Example 61, 1-[7-fluoro-5-(4-methoxyphenyl)-3,4-dihydro-2H-1,4-benzoxazin-3-yl]methanamine] | 6.42
NCC1COc2cc(F)cc(-c3ccccc3F)c2N1 (racemic) [Example 62, 1-[7-fluoro-5-(2-fluorophenyl)-3,4-dihydro-2H-1,4-benzoxazin-3-yl]methanamine] | 6.10
COc1ccccc1-c1cc(F)cc2c1NC(CN)CO2 (racemic) [Example 64, 1-[7-fluoro-5-(2-methoxyphenyl)-3,4-dihydro-2H-1,4-benzoxazin-3-yl]methanamine] | 6.54
NCC1COc2cc(F)cc(-c3cccc(Cl)c3)c2N1 (racemic) [Example 65, 1-[5-(3-chlorophenyl)-7-fluoro-3,4-dihydro-2H-1,4-benzoxazin-3-yl]methanamine] | 6.30
CN1CC(CN)Oc2c(-c3cccc(Cl)c3)cccc21 (racemic) [Example 66, 1-[8-(3-chlorophenyl)-4-methyl-3,4-dihydro-2H-1,4-benzoxazin-2-yl]methanamine] | 6.59
Cc1cc(Cl)ccc1-c1cccc2c1O[C@H](CN)CN2 [Example 42, 1-[(2R)-8-(4-chloro-2-methylphenyl)-3,4-dihydro-2H-1,4-benzoxazin-2-yl]methanamine] | 6.28
NC[C@@H]1CNc2cccc(-c3ccccc3F)c2O1 [Example 43, 1-[(2R)-8-(2-fluorophenyl)-3,4-dihydro-2H-1,4-benzoxazin-2-yl]methanamine] | 7.01

Results, then the compound that gave them:

pKi | SMILES
6.80 | COc1ccc(-c2cc(Cl)cc3c2NC(CN)CO3)cc1 (racemic) [Example 26, 1-[7-Chloro-5-(4-methoxyphenyl)-3,4-dihydro-2H-1,4-benzoxazin-3-yl]methanamine]
5.95 | COc1ccc(-c2cc(Cl)cc3c2N(C)C(CN)CO3)c(C)c1 (racemic) [Example 28, 1-[7-chloro-5-(4-methoxy-2-methylphenyl)-4-methyl-3,4-dihydro-2H-1,4-benzoxazin-3-yl]methanamine]
6.81 | Cc1ccccc1-c1cc(Cl)cc2c1NC(CN)CO2 (racemic) [Example 30, 1-[7-chloro-5-(2-methylphenyl)-3,4-dihydro-2H-1,4-benzoxazin-3-yl]methanamine]
6.82 | NCC1COc2cc(Cl)cc(-c3ccccc3F)c2N1 (racemic) [Example 33, 1-[7-chloro-5-(2-fluorophenyl)-3,4-dihydro-2H-1,4-benzoxazin-3-yl]methanamine]
6.13 | COc1ccccc1-c1cc(Cl)cc2c1NC(CN)CO2 (racemic) [Example 34, 1-[7-chloro-5-(2-methoxyphenyl)-3,4-dihydro-2H-1,4-benzoxazin-3-yl]methanamine]
6.76 | Cc1cc(Cl)ccc1-c1cc(Cl)cc2c1NC(CN)CO2 (racemic) [Example 35, 1-[7-chloro-5-(4-chloro-2-methylphenyl)-3,4-dihydro-2H-1,4-benzoxazin-3-yl]methanamine]
6.78 | NCC1COc2cc(Cl)cc(-c3ccc(Cl)cc3C(F)(F)F)c2N1 (racemic) [Example 37, 1-{7-chloro-5-[4-chloro-2-(trifluoromethyl)phenyl]-3,4-dihydro-2H-1,4-benzoxazin-3-yl}methanamine]
6.80 | COc1ccc(-c2cc(F)cc3c2NC(CN)CO3)c(C)c1 (racemic) [Example 56, 1-[7-fluoro-5-(4-methoxy-2-methylphenyl)-3,4-dihydro-2H-1,4-benzoxazin-3-yl]methanamine]
6.64 | Cc1cc(Cl)ccc1-c1cc(F)cc2c1NC(CN)CO2 (racemic) [Example 63, 1-[5-(4-chloro-2-methylphenyl)-7-fluoro-3,4-dihydro-2H-1,4-benzoxazin-3-yl]methanamine]

system: not given; assay: not given; conditions: not given

melting point | SMILES
77 °C (dec.) | NCC1COc2cc(F)cc(-c3ccccc3F)c2N1 (racemic) (as salt: hydrochloride) [Example 62, 1-[7-fluoro-5-(2-fluorophenyl)-3,4-dihydro-2H-1,4-benzoxazin-3-yl]methanamine]
90 °C (dec.) | Cc1cc(Cl)ccc1-c1cc(F)cc2c1NC(CN)CO2 (racemic) (as salt: hydrochloride) [Example 63, 1-[5-(4-chloro-2-methylphenyl)-7-fluoro-3,4-dihydro-2H-1,4-benzoxazin-3-yl]methanamine]
84 °C (dec.) | COc1ccccc1-c1cc(F)cc2c1NC(CN)CO2 (racemic) (as salt: hydrochloride) [Example 64, 1-[7-fluoro-5-(2-methoxyphenyl)-3,4-dihydro-2H-1,4-benzoxazin-3-yl]methanamine]
76 °C (dec.) | NCC1COc2cc(F)cc(-c3cccc(Cl)c3)c2N1 (racemic) (as salt: hydrochloride) [Example 65, 1-[5-(3-chlorophenyl)-7-fluoro-3,4-dihydro-2H-1,4-benzoxazin-3-yl]methanamine]
134 °C (dec.) | CN1CC(CN)Oc2c(-c3cccc(Cl)c3)cccc21 (racemic) (as salt: hydrochloride) [Example 66, 1-[8-(3-chlorophenyl)-4-methyl-3,4-dihydro-2H-1,4-benzoxazin-2-yl]methanamine]
